From US12247004B2, “2-amino-N-(amino-oxo-aryl-lambda6-sulfanylidene)acetamide compounds and their therapeutic use” (Oxford Drug Design Limited, priority 2019, dated 2025)
≈ marks a conversion by molar mass, not a printed value. Like-named read-outs stand apart in the source and are kept apart here.

Tests used:
[1] = target: Leucyl-tRNA synthetase (LeuRS) (Escherichia coli (strain K12), UniProt P07813); assay: Leucyl-tRNA synthetase enzyme inhibition (AMP-Glo; single point % inhibition at 100 μM and IC50); format: biochemical
Excerpt: Study 1—Enzyme Inhibition
The aminoacylation reaction catalyzed by aminoacyl-tRNA synthetases (aaRS) takes place in two steps. In the first step, aaRS activates its cognate amino acid with ATP; and in the second step the activated amino acid is loaded to its corresponding tRNA. This reaction can be summarized as follows: aaRS+aa+ATP=aaRS-aa-AMP+PPi aaRS-aa-AMP+tRNA=aa-tRNA+AMP+aaRS
wherein: aaRS, aminoacyl-tRNA synthetase; aa, amino acid; aaRS-aa-AMP, enzyme-bound to aminoacyl-adenylate; AMP, adenosine monophosphate; aa-tRNA, aminoacyl-tRNA, PPi, inorganic pyrophosphate.
a. Single Point Percentage Inhibition
The activity of the pathogenic aaRSs was monitored by measuring AMP production using the commercial kit AMP-Glo (Promega, Madison, USA).
Ligand stock solutions were prepared in 100% DMSO at 10 mM concentration. An assay buffer consisting of 100 mM Tris HCl pH 7.6, 40 mM MgCl, 20 mM KCl and 150 mM NaCl was prepared in dH2O.
Using the same enzymatic assay in a 384-well plate format, ten point concentration response curves were generated for each compound using a top concentration of 10 μM. The known inhibitor LeuAMS was used as a positive control for the LeuRS assay. 100% DMSO was used as a negative control. The IC50 was calculated based on non-linear regression analysis.

[2] = system: bacteria (ATCC reference strains); assay: Antibacterial activity, MIC by broth micro-dilution (CLSI)
[3] = Acinetobacter baumannii, read-out: Antibacterial Activity (MIC), E = A. baumannii B1931
[4] = Enterobacter cloacae, read-out: Antibacterial Activity (MIC), B = Enterobacter cloacae B1966
[5] = Escherichia coli, ATCC25922, read-out: Antibacterial Activity (MIC), A = E. coli ATCC 25922
[6] = Escherichia coli, BAA2469, read-out: Antibacterial Activity (MIC), G = E. coli BAA-2469
[7] = Haemophilus influenzae, ATCC49247, read-out: Antibacterial Activity (MIC), F = H. influenzae ATCC 49247
[8] = Klebsiella pneumoniae, ATCC700603, read-out: Antibacterial Activity (MIC), C = K. pneumoniae ATCC 700603
[9] = Pseudomonas aeruginosa, ATCC27853, read-out: Antibacterial Activity (MIC), D = P. aeruginosa ATCC 27853
[10] = E. coli LeuRS, read-out: Enzyme Inhibition - IC50, E. coli LeuRS

Leucyl-tRNA synthetase (LeuRS), sequence (P07813 whole entry, looked up): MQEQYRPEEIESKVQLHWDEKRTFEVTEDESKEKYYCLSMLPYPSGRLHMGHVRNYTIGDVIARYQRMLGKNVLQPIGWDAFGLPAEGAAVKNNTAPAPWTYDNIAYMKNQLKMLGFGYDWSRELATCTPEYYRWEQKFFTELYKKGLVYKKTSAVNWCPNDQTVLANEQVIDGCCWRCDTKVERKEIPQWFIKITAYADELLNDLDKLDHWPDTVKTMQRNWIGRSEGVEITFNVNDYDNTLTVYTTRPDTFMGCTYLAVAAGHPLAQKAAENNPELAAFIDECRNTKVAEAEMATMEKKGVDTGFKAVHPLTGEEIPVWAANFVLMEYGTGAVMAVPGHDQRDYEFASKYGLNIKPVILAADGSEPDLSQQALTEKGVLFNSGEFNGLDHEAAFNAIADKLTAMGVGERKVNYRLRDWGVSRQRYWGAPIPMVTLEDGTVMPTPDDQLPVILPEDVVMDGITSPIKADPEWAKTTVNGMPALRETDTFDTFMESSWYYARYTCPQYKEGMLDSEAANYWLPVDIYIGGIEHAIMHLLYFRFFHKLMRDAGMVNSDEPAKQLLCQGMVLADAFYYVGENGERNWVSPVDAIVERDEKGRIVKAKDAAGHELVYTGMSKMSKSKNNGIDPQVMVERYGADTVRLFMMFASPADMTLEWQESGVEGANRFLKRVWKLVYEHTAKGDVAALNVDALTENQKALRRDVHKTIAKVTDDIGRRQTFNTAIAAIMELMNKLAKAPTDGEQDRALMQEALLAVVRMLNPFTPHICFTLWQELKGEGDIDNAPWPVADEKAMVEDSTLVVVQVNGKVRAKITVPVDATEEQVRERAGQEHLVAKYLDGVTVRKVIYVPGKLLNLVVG

Question: How did the IC50 [1] turn out when `CC(C)C[C@H](N)C(=O)N=S(N)(=O)c1nc(Cl)cs1` (mixture of isomers) [ANASIA-045] was run?
Answer: 5520 nM

Question: With `CC(C)C[C@H](N)C(=O)N=[S@](N)(=O)c1cccs1.Cl` (single isomer, unassigned) [ANASIA-007-1] as the molecule, how does the MIC [2, 3] read?
Answer: 8 µg/mL

Question: And the MIC [2, 4]?
Answer: 8 µg/mL

Question: What about the MIC [2, 5] of the same molecule?
Answer: 1 µg/mL

Question: What about the MIC [2, 6] of the same molecule?
Answer: 5.04 µg/mL

Question: And the MIC [2, 7]?
Answer: 2 µg/mL

Question: What about the MIC [2, 8] of the same molecule?
Answer: 8 µg/mL

Question: And the MIC [2, 9]?
Answer: 16 µg/mL

Question: Which MIC [2, 3] does the source give for `Cc1csc([S@@](N)(=O)=NC[C@@H](N)CC(C)C)n1` [ANASIA-004-1] here?
Answer: 32 µg/mL (≈ 116 µM)

Question: And the MIC [2, 4]?
Answer: > 64 µg/mL

Question: And the MIC [2, 5]?
Answer: 4 µg/mL (≈ 14.5 µM)

Question: And the MIC [2, 6]?
Answer: 64 µg/mL (≈ 232 µM)

Question: What about the MIC [2, 8] of the same molecule?
Answer: > 64 µg/mL

Question: And the MIC [2, 9]?
Answer: 64 µg/mL (≈ 232 µM)

Question: `CN[S@@](=O)(=NC(=O)[C@@H](N)CC(C)C)c1ccccc1` [ANASIA-010-1, (S)-2-amino-4-methyl-N—((S)-(methylamino)(oxo)(phenyl)-λ6-sulfanylidene)pentanamide] was tested. Which IC50 [1] did it give?
Answer: 9150 nM

Question: For `CC(C)C[C@H](N)C(=O)N=[S@@](N)(=O)c1cccc(Br)c1` [ANASIA-044-2], which IC50 [1, 10] is on record?
Answer: 2160 nM

Question: Which results are given for `CC(C)C[C@H](N)C(=O)N=[S@](N)(=O)c1nc(Cl)cs1.Cl` [ANASIA-045-1]?
Answer: MIC [2, 3]: 64 µg/mL; MIC [2, 4]: > 64 µg/mL; MIC [2, 5]: 4 µg/mL; MIC [2, 6]: 45.3 µg/mL; MIC [2, 8]: > 64 µg/mL; MIC [2, 9]: > 64 µg/mL

Question: How did the IC50 [1, 10] turn out when `CC(C)C[C@H](N)C(=O)N=S(N)(=O)c1ccc2c(c1)CCO2` (stereo partly drawn) [ANASIA-048] was run?
Answer: 6530 nM

Question: With `CC(C)C[C@H](N)C(=O)N=[S@@](N)(=O)c1cccc(C(C)(C)C)c1` [ANASIA-049-2] as the molecule, how does the IC50 [1, 10] read?
Answer: 2630 nM

Question: Which IC50 [1] does the source give for `N[C@@H](CC1CC1)C(=O)N=[S@](N)(=O)c1ccccc1` [ANASIA-050-1] here?
Answer: 4330 nM

Question: How did the inhibition at 10 µM ([1]; read-out: Enzyme inhibition, E. coli LeuRS, % at 10 μM) turn out when `CC(C)C[C@H](N)C(=O)N=S(N)(=O)c1ccncc1` (stereo partly drawn) [ANASIA-059-1, (2S)-2-amino-N-(amino(oxo)(pyridin-4-yl)-λ^6-sulfanylidene)-4-methylpentanamide] was run?
Answer: 46%

Question: How did the IC50 [1, 10] turn out when `CC(C)C[C@H](N)C(=O)N=[S@@](N)(=O)c1cc(F)cs1` [ANASIA-062-2] was run?
Answer: 715 nM

Question: `CC(C)C[C@H](N)C(=O)N=S(N)(=O)c1cc(C#N)ccc1F` (stereo partly drawn) [ANASIA-065] was tested. Which IC50 [1, 10] did it give?
Answer: 670 nM

Question: How did the IC50 [1] turn out when `CC(C)C[C@H](N)C(=O)N=[S@](N)(=O)c1cc(-c2ccccc2)cs1` [ANASIA-067-1] was run?
Answer: 1920 nM

Question: `CC(C)C[C@H](N)C(=O)N=S(N)(=O)c1ccn(C)n1` (stereo partly drawn) [ANASIA-073] was tested. Which IC50 [1] did it give?
Answer: 238 nM

Question: How did the IC50 [1, 10] turn out when `CC(C)C[C@H](N)C(=O)N=[S@@](N)(=O)c1ccccn1` [ANASIA-075-2] was run?
Answer: 2540 nM

Question: For `CC(C)C[C@H](N)C(=O)N=S(N)(=O)c1csc(Cl)c1` (stereo partly drawn) [ANASIA-099], which MIC [2, 3] is on record?
Answer: 32 µg/mL (≈ 103 µM)

Question: And the MIC [2, 5]?
Answer: 1 µg/mL (≈ 3.23 µM)

Question: And the MIC [2, 6]?
Answer: 2.83 µg/mL (≈ 9.13 µM)

Question: And the MIC [2, 7]?
Answer: 2 µg/mL (≈ 6.45 µM)

Question: And the MIC [2, 8]?
Answer: 16 µg/mL (≈ 51.6 µM)

Question: And the MIC [2, 9]?
Answer: > 64 µg/mL

Question: What does the source list for `CC[C@H]1OC(=O)[C@H](C)[C@@H](O[C@H]2C[C@@](C)(OC)[C@@H](O)[C@H](C)O2)[C@H](C)[C@@H](O[C@@H]2O[C@H](C)C[C@H](N(C)C)[C@H]2O)[C@](C)(O)C[C@@H](C)CN(C)[C@H](C)[C@@H](O)[C@]1(C)O` [Azithromycin]?
Answer: MIC [2, 3]: 16 µg/mL (≈ 21.4 µM); MIC [2, 4]: 16 µg/mL (≈ 21.4 µM); MIC [2, 5]: 4 µg/mL (≈ 5.34 µM); MIC [2, 7]: 2 µg/mL (≈ 2.67 µM); MIC [2, 8]: 32 µg/mL (≈ 42.7 µM); MIC [2, 9]: 32 µg/mL (≈ 42.7 µM)

Question: Which results are given for `CC(C)(O/N=C(\C(=O)N[C@@H]1C(=O)N2C(C(=O)[O-])=C(C[n+]3ccccc3)CS[C@H]12)c1csc(N)n1)C(=O)O` [Ceftazidime]?
Answer: Antibacterial Activity (MIC), E = A. baumannii B1931 [2]: 2 µg/mL; Antibacterial Activity (MIC), A = E. coli ATCC 25922 [2]: 0.25 µg/mL; Antibacterial Activity (MIC), G = E. coli BAA-2469 [2]: >64.0 µg/mL; Antibacterial Activity (MIC), B = Enterobacter cloacae B1966 [2]: 0.5 µg/mL; Antibacterial Activity (MIC), F = H. influenzae ATCC 49247 [2]: 16 µg/mL; Antibacterial Activity (MIC), C = K. pneumoniae ATCC 700603 [2]: >64 µg/mL; Antibacterial Activity (MIC), D = P. aeruginosa ATCC 27853 [2]: >64 µg/mL

Question: With `C[C@@H](O)[C@H]1C(=O)N2C(C(=O)O)=C(S[C@@H]3CN[C@H](C(=O)N(C)C)C3)[C@H](C)[C@H]12` [Meropenem] as the molecule, how does the “Antibacterial Activity (MIC), E = A. baumannii B1931” value [2] read?
Answer: 8 µg/mL

Question: What about the “Antibacterial Activity (MIC), A = E. coli ATCC 25922” value [2] of the same molecule?
Answer: 0.5 µg/mL

Question: What about the “Antibacterial Activity (MIC), G = E. coli BAA-2469” value [2] of the same molecule?
Answer: >62.0 µg/mL

Question: And the “Antibacterial Activity (MIC), B = Enterobacter cloacae B1966” value [2]?
Answer: 0.5 µg/mL

Question: And the “Antibacterial Activity (MIC), F = H. influenzae ATCC 49247” value [2]?
Answer: 4 µg/mL

Question: And the “Antibacterial Activity (MIC), C = K. pneumoniae ATCC 700603” value [2]?
Answer: 0.5 µg/mL

Question: What about the “Antibacterial Activity (MIC), D = P. aeruginosa ATCC 27853” value [2] of the same molecule?
Answer: >64 µg/mL
